What all share (assay type): cell-based, human
One assay deals with MRC-5. The experiment in a line: MTT cytotoxicity assay, 72 h, normal control cells. The note with it: Homo sapiens, MRC5, IC50 ± SD, normal fibroblasts. An outline of the steps: (§1)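 Plated cells (1 × 10^4 per well) received test compounds from 0.1 to 100 µM for 72 h in serum-containing medium. After 4 h with 0.5 mg/mL MTT, the dye was dissolved in 10% SDS with 0.1 mM HCl overnight and measured at 570 nm.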
In general terms: Tetrazolium dyes change colour on reduction, which living cells bring about.

The subject of the next assay is p53. The experiment in a line: p53-dependent transcriptional activity reporter assay (β-galactosidase) in Arn-8 cells. The note with it: p53 reporter assays. The method, then:
Table S3. Results of p53 activity of compounds 4a-u and 7a-j.
Compound fold p53 activity […]
p53-dependent transcriptional activity
To measure p53-dependent transcriptional activity, -galactosidase activity was determined in the human melanoma cell line Arn-8, stably transfected with a p53-responsive reporter construct pRGC foslacZ as described before. After 24 h incubation with the inhibitors, the cells were permeabilized with 0.3% Triton X-100 for 15 min, and then 4-methylumbelliferon-ß-D-galactopyranoside was added as a substrate to a final concentration of 80 µM. […]
fluorescence was measured at 355/460 nm (ex/em) with a Fluoroskan Ascent microplate reader […]
Figure S6. Dose-response effect of roscovitine on p53 activity in ARN8 cells (control experiment).
(1 picture or pasted object on this page, not shown here)

The next assay relates to HL-60 cells. The experiment in a line: Cell viability by propidium iodide flow cytometry. The conditions noted are these: HL-60, 50 μM, 24 h, PI staining. A general note: Flow cytometry measures light scatter and fluorescence of single cells or particles in a stream.
The next assay relates to CACO2. The experiment in a line: MTT cytotoxicity assay, 72 h. The conditions noted are these: Homo sapiens, Caco-2, IC50 ± SD.
The subject of another assay is K562. Briefly: MTT cytotoxicity assay, 72 h. An outline of the steps:
as §1

Another assay relates to CFPAC-1. The experiment in a line: MTT cytotoxicity assay, 72 h. The conditions noted are these: Homo sapiens, CFPAC-1, IC50 ± SD. An outline of the steps:
as §1

The subject of another assay is NCI-H460. Briefly: MTT cytotoxicity assay, 72 h. An outline of the steps:
as §1

In another assay the test system is MCF-7. The experiment in a line: MTT cytotoxicity assay, 72 h. An outline of the steps:
as §1

The next assay relates to HCT-116. Briefly: MTT cytotoxicity assay, 72 h. The note with it: Homo sapiens, HCT-116, IC50 ± SD. An outline of the steps: as §1
A further assay has as its system HL-60. The experiment in a line: MTT cytotoxicity assay, 72 h. The note with it: for IC50: Homo sapiens. An outline of the steps:
as §1

Like-named read-outs stand apart in the source and are kept apart here.

For `O=[N+]([O-])c1ccc(N2CCN(c3nc(Cl)nc4c3ncn4C3CCCC3)CC2)cc1` [7h, 2-Chloro-9-cyclopentyl-6-(4-(4-nitrophenyl)piperazin-1-yl)-9H-purine], the IC50 with MRC-5 was above 100000 nM; in the assay on CACO2, above 100000 nM; with K562 (Homo sapiens, K562, 72 h, MTT, 72 h, IC50 ± SD) it was 1020 ± 40 nM; in the assay on CFPAC-1 it was above 100000 nM; with NCI-H460 (Homo sapiens, NCI-H460, 72 h, MTT, 72 h, IC50 ± SD, read-out: IC50 NCI-H460), 1300 nM; with NCI-H460 (Homo sapiens, NCI-H460, -logIC50 in molar concentration, Table S2, read-out: Experimental pIC50 (NCI-H460) (converted)) it was 1310 nM. The IC50 in the assay on NCI-H460 (MTT, 72 h, IC50 ± SD, read-out: IC50 NCI-H460) was 1310 ± 70 nM; in the assay with MCF-7 (MTT, 72 h, IC50 ± SD), 1550 ± 340 nM; in the assay with HCT-116, 30000 ± 7100 nM; in the assay on HL-60 (HL-60, 72 h, MTT, 72 h, IC50 ± SD, read-out: IC50 HL-60) it was 400 ± 10 nM; in the assay with HL-60 (HL-60, -logIC50 in molar concentration, Table S1, read-out: Experimental pIC50 (HL-60) (converted)) it was 400 nM. Also, in the assay on p53, the “effect on p53 activation” value was “no effect on p53 activation”. The apoptotic cells in the assay with HL-60 cells is listed as around 30%. Also, in the assay on K562 (IC50 in MRC-5 / IC50 in K562), the “Selectivity Index (SI) MRC-5/K562” value is above 98. In the assay with NCI-H460 (IC50 in MRC-5 / IC50 in NCI-H460), the “Selectivity Index (SI) MRC-5/NCI-H460” value was above 76.3. The “Selectivity Index (SI) MRC-5/MCF-7” value in the assay on MCF-7 (IC50 in MRC-5 / IC50 in MCF-7) is above 64.5. Moreover, the “Selectivity Index (SI) MRC-5/HL-60” value in the assay with HL-60 (IC50 in MRC-5 / IC50 in HL-60) is recorded as above 250.

The values are drawn from PMC6981454, “Promising 2,6,9-Trisubstituted Purine Derivatives for Anticancer Compounds: Synthesis, 3D-QSAR, and Preliminary Biological Assays” (International Journal of Molecular Sciences, 2019).
